What was measured:
[1] = target: T1, Mitogen-activated protein kinase kinase kinase kinase 3 (Homo sapiens, UniProt Q8IVH8); assay: Inhibition of GLK (unknown origin)
T1 sequence (Q8IVH8 whole entry): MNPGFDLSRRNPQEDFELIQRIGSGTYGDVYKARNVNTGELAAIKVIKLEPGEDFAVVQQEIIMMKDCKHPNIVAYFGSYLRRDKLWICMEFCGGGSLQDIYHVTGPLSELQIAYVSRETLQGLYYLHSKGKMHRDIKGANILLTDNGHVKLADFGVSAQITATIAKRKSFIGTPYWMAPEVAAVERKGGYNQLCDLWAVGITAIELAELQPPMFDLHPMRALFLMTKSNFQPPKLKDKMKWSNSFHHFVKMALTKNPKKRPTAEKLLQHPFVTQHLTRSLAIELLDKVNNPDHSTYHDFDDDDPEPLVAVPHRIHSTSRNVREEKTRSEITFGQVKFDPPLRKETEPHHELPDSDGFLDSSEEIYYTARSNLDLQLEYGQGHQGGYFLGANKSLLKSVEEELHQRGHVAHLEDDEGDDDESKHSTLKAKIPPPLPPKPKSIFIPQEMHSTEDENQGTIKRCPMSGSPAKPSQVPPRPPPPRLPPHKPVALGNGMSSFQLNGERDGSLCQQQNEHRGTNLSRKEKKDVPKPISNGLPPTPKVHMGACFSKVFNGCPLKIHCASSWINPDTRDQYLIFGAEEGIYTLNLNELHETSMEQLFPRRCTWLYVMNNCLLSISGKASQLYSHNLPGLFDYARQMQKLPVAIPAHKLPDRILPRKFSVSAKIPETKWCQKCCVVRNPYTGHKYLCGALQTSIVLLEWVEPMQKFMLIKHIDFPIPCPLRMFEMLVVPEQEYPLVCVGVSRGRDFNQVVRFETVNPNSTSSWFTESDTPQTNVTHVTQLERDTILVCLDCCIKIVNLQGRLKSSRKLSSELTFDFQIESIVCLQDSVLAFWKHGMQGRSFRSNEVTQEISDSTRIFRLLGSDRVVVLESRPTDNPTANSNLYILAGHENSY

[2] = Oral bioavailability in Beagle dog at 0.5 mg/kg measured for 24 hrs by LC/MS/MS analysis; format: ADME, organism-based, Canis lupus familiaris; conditions: in vivo
[3] = Clearance in Sprague-Dawley rat at 0.5 mg/kg, iv measured for 8 hrs by LC-MS/MS analysis; format: ADME, organism-based; conditions: in vivo
[4] = target: Mitogen-activated protein kinase kinase kinase kinase 4 (Homo sapiens, UniProt O95819); assay: Inhibition of MAP4K4 (unknown origin)
[5] = Protein binding in dog plasma; format: ADME, cell-free, Canis lupus familiaris; conditions: read-out: PPB (converted)
[6] = Volume of distribution at steady state in cynomolgus monkey at 0.5 mg/kg, po or 0.5 mg/kg, iv measured for 24 hrs by LC/MS/MS analysis; format: ADME, organism-based, Macaca fascicularis; conditions: in vivo
[7] = target: Sodium channel protein type 5 subunit alpha (Homo sapiens, UniProt Q14524); assay: Inhibition of Nav1.5 (unknown origin)
[8] = target: Voltage-gated inwardly rectifying potassium channel KCNH2 (Homo sapiens, UniProt Q12809); assay: Inhibition of hERG; format: toxicity
[9] = Selectivity ratio of IC50 for inhibition of GLK (unknown origin) to Ki for inhibition of human full length HPK1-T165E/S171E mutant expressed in baculovirus expression system
[10] = Inhibition of human full length HPK1-T165E/S171E mutant expressed in baculovirus expression system assessed as inhibition of SLP76 phosphorylation using biotinylated SLP76 as substrate preincubated for 30 mins followed by incubation with substrate in presence of ATP and measured for 60 mins by HTRF assay
[11] = Protein binding in rat plasma; format: ADME, cell-free; conditions: read-out: PPB (converted)
[12] = Inhibition of KHS1 (unknown origin); parameters: species or system Homo sapiens
[13] = Half life in Sprague-Dawley rat at 0.5 mg/kg, iv measured for 8 hrs by LC-MS/MS analysis; format: ADME, organism-based; conditions: in vivo
[14] = target: Sodium-dependent serotonin transporter (Homo sapiens) (UniProt P31645); assay: Inhibition of 5-HTT (unknown origin) at 10 uM
[15] = Selectivity ratio of IC50 for inhibition of TNIK (unknown origin) to Ki for inhibition of human full length HPK1-T165E/S171E mutant expressed in baculovirus expression system
[16] = Half life in cynomolgus monkey at 0.5 mg/kg, po or 0.5 mg/kg, iv by measured for 24 hrs LC/MS/MS analysis; format: ADME, organism-based, Macaca fascicularis; conditions: in vivo
[17] = Selectivity ratio of IC50 for inhibition of KHS1 (unknown origin) to Ki for inhibition of human full length HPK1-T165E/S171E mutant expressed in baculovirus expression system
[18] = target: T2, Mitogen-activated protein kinase kinase kinase kinase 1 (Homo sapiens, UniProt Q92918); assay: Inhibition of HPK1 in primary human Pan T cells assessed as increase in IL-2 secretion pretreated for 30 mins followed by incubation with anti-CD3/anti-CD28 and measured after 4 hrs by MSD assay; format: cell-based, T cell
[19] = Oral bioavailability in Sprague-Dawley rat; format: ADME, organism-based; conditions: in vivo
[20] = Protein binding in cynomolgus monkey plasma; format: ADME, cell-free, Macaca fascicularis; conditions: read-out: PPB (converted)
[21] = target: TRAF2 and NCK-interacting protein kinase (Homo sapiens, UniProt Q9UKE5); assay: Inhibition of TNIK (unknown origin)
[22] = Selectivity ratio of IC50 for inhibition of GCK (unknown origin) to Ki for inhibition of human full length HPK1-T165E/S171E mutant expressed in baculovirus expression system
[23] = Cytotoxicity against human liver-microtissues upto 100 uM; format: toxicity, tissue-based
[24] = target: Misshapen-like kinase 1 (Homo sapiens, UniProt Q8N4C8); assay: Inhibition of MINK1 (unknown origin)
[25] = target: T3, Mitogen-activated protein kinase kinase kinase kinase 2 (Homo sapiens, UniProt Q12851); assay: Inhibition of GCK (unknown origin)
T3 sequence (Q12851 whole entry): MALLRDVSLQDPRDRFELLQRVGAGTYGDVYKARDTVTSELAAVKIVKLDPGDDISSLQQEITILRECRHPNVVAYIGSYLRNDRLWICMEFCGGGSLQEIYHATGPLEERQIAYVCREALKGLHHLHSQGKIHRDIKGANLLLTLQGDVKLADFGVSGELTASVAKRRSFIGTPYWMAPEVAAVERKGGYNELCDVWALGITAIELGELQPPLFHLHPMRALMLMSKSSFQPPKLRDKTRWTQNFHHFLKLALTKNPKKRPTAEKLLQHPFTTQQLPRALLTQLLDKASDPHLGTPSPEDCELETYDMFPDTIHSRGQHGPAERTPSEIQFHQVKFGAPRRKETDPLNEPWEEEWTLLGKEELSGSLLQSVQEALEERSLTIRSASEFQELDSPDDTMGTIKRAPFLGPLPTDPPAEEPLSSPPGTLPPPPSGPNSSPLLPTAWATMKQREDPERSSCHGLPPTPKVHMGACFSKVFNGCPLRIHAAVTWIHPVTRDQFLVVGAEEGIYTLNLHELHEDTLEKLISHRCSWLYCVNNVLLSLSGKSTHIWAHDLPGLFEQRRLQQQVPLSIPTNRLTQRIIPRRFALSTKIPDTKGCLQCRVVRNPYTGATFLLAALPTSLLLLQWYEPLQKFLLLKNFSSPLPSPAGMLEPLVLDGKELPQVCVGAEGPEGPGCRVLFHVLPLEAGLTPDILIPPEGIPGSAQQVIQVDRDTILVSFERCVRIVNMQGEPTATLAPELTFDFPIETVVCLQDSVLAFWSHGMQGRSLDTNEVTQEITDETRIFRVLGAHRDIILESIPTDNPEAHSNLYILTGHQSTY

[26] = target: Aurora kinase B (Homo sapiens, UniProt Q96GD4); assay: Inhibition of Aurora kinase B (unknown origin)
[27] = target: T4, D(4) dopamine receptor (Homo sapiens) (UniProt P21917); assay: Inhibition of dopamine D4 receptor (unknown origin) at 10 uM
T4 sequence (whole entry): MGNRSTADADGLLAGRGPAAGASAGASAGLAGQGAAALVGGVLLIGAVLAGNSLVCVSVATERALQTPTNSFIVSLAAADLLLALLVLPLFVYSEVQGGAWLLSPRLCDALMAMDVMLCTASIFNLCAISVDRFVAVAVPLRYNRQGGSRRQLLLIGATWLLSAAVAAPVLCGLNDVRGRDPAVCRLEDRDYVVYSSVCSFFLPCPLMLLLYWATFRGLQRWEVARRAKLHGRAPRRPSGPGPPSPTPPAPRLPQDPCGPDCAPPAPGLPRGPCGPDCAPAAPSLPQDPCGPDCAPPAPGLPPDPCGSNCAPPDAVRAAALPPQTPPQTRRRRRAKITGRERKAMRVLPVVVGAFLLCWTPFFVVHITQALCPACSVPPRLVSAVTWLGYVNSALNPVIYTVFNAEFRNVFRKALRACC

[28] = Selectivity ratio of IC50 for inhibition of MINK1 (unknown origin) to Ki for inhibition of human full length HPK1-T165E/S171E mutant expressed in baculovirus expression system
[29] = species on record: Homo sapiens; assay: Inhibition of benzodiazepine receptor (unknown origin) at 10 uM
[30] = Protein binding in mouse plasma; format: ADME, cell-free; conditions: read-out: PPB (converted)
[31] = tested on: Hepatocyte; assay: Cytotoxicity against human primary hepatocytes upto 100 uM; format: toxicity, cell-based
[32] = Oral bioavailability in C57BL/6 mouse at 25 mg/kg measured for 24 hrs by LC-MS/MS analysis; format: ADME, organism-based; conditions: in vivo
[33] = target: T2, Mitogen-activated protein kinase kinase kinase kinase 1; assay: Inhibition of HPK1 in human Jurkat cells assessed as inhibition of anti-CD3/anti-CD28-induced SLP76 phosporylation at Ser376 residue incubated for 30 mins by ELISA; format: cell-based
[34] = Apparent permeability of the compound across apical to basolateral side in dog MDCK1 cells at 10 uM by LC-MS/MS analysis; format: ADME, cell-based, Canis lupus familiaris; conditions: MDCK
[35] = Volume of distribution at steady state in Sprague-Dawley rat at 0.5 mg/kg, iv measured for 8 hrs by LC-MS/MS analysis; format: ADME, organism-based; conditions: in vivo, read-out: Vdss
[36] = target: Voltage-dependent L-type calcium channel subunit alpha-1C (Homo sapiens, UniProt Q13936); assay: Inhibition of Cav1.2 (unknown origin)
[37] = Selectivity ratio of IC50 for inhibition of MAP4K4 (unknown origin) to Ki for inhibition of human full length HPK1-T165E/S171E mutant expressed in baculovirus expression system
[38] = Half life in Beagle dog at 0.5 mg/kg, po or 0.5 mg/kg, iv measured for 24 hrs by LC/MS/MS analysis; format: ADME, organism-based, Canis lupus familiaris; conditions: in vivo
[39] = Oral bioavailability in cynomolgus monkey at 0.5 mg/kg measured for 24 hrs by LC/MS/MS analysis; format: ADME, organism-based, Macaca fascicularis; conditions: in vivo
[40] = Half life in C57BL/6 mouse at 25 mg/kg, po or 1 mg/kg, iv measured for 24 hrs by LC-MS/MS analysis; format: ADME, organism-based; conditions: in vivo
[41] = Volume of distribution at steady state in Beagle dog at 0.5 mg/kg, po or 0.5 mg/kg, iv measured for 24 hrs by LC/MS/MS analysis; format: ADME, organism-based, Canis lupus familiaris; conditions: in vivo
[42] = Volume of distribution at steady state in C57BL/6 mouse at 25 mg/kg, po or 1 mg/kg, iv measured for 24 hrs by LC-MS/MS analysis; format: ADME, organism-based; conditions: in vivo
[43] = target: Leucine-rich repeat serine/threonine-protein kinase 2 (Homo sapiens, UniProt Q5S007); assay: Inhibition of LRRK2 (unknown origin)

T2 sequence (Q92918 whole entry): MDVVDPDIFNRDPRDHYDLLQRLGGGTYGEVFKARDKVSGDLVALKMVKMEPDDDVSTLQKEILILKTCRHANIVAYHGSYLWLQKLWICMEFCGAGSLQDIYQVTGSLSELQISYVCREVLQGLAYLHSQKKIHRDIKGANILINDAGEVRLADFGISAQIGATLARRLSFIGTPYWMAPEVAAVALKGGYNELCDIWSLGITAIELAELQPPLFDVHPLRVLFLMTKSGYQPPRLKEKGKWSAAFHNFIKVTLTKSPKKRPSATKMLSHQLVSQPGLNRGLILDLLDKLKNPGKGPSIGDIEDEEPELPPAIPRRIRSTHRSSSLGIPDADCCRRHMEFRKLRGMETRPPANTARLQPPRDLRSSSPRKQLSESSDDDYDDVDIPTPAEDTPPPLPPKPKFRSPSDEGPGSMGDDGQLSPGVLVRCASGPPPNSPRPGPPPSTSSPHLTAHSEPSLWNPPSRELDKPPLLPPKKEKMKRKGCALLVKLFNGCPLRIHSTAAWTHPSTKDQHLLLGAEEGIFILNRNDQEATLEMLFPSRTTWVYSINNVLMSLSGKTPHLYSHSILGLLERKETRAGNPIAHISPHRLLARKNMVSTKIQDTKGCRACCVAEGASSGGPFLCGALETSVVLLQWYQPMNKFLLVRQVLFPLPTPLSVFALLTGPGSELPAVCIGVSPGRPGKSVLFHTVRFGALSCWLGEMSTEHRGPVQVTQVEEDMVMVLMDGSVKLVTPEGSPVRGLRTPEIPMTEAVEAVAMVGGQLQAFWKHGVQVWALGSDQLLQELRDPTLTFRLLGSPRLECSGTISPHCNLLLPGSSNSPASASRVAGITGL
Chain of Sodium channel protein type 5 subunit alpha (Q14524 whole entry): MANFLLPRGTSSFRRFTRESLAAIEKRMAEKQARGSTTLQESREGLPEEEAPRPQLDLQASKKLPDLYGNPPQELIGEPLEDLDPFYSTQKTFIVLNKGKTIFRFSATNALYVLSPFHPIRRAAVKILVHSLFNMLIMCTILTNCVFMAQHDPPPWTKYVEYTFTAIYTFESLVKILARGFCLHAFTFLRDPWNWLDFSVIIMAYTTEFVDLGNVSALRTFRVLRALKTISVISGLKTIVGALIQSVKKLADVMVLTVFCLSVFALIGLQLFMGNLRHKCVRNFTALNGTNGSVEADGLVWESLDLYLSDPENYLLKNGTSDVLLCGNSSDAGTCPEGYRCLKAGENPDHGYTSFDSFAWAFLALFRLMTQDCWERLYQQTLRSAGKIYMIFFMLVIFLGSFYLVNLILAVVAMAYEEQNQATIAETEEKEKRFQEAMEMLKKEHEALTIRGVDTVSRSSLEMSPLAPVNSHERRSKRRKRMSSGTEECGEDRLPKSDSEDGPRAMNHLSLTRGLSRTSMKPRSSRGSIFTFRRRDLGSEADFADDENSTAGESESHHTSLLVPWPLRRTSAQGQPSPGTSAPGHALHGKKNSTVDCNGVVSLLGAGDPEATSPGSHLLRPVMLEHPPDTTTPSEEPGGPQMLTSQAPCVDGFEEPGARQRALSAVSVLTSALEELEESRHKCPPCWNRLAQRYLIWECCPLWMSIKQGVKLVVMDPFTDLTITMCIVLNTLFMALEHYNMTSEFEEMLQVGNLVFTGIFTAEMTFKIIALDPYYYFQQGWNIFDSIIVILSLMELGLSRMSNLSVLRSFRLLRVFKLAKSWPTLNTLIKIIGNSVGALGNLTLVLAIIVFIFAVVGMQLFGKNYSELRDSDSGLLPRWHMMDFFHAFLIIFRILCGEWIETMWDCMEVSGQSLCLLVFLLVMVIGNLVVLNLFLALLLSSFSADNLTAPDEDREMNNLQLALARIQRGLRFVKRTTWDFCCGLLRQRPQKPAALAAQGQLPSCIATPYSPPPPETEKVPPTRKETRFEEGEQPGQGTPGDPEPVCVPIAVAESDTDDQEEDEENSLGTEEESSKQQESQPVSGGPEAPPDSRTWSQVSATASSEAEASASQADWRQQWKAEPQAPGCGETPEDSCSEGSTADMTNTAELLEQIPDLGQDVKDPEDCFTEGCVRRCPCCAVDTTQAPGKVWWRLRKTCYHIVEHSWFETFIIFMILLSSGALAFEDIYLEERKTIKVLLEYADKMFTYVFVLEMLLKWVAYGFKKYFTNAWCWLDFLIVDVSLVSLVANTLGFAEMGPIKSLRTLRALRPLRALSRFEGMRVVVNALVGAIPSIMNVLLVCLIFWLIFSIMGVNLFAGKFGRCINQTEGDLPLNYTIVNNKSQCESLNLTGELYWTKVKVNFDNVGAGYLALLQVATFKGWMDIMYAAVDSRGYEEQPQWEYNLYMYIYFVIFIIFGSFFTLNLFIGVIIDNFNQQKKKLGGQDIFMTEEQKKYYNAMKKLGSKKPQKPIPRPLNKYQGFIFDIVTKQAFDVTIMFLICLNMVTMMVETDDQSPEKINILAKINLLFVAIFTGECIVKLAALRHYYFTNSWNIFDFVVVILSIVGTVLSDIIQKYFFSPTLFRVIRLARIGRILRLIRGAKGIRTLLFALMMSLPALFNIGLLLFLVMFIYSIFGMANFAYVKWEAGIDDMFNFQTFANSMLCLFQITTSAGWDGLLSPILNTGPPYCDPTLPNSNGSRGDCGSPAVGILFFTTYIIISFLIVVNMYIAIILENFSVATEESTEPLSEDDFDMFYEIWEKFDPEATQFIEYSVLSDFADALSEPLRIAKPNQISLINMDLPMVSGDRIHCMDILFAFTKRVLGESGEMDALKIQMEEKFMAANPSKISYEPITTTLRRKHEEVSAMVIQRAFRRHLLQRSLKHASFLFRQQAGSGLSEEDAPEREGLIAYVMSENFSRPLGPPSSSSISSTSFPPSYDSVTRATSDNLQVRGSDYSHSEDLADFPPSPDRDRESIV
Chain of Aurora kinase B (Q96GD4 whole entry): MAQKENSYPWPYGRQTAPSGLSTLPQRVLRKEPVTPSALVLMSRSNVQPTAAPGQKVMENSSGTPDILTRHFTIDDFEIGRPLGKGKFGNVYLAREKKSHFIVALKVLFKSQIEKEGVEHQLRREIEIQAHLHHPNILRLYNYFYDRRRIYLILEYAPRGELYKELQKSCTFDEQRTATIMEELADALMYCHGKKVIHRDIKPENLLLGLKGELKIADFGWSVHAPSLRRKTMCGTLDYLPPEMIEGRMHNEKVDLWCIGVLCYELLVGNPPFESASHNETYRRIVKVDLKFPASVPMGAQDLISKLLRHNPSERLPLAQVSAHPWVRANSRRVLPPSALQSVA
Chain of Sodium-dependent serotonin transporter (Homo sapiens) (P31645 whole entry, looked up): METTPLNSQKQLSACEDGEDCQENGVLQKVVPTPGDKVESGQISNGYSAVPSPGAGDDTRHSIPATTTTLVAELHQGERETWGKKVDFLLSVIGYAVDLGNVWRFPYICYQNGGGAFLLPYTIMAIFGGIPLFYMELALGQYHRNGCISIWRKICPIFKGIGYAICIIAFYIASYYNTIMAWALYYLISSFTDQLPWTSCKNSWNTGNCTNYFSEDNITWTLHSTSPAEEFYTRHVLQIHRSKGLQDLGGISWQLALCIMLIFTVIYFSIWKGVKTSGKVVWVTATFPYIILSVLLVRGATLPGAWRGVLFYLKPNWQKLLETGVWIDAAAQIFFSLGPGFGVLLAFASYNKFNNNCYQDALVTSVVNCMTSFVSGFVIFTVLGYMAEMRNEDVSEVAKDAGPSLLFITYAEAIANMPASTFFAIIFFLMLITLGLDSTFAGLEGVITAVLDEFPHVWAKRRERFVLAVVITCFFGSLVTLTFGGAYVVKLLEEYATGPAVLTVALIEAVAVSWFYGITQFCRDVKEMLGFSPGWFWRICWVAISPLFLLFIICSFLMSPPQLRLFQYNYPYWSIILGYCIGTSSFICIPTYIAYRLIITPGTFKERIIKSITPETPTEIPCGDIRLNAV
Chain of Mitogen-activated protein kinase kinase kinase kinase 4 (O95819 whole entry): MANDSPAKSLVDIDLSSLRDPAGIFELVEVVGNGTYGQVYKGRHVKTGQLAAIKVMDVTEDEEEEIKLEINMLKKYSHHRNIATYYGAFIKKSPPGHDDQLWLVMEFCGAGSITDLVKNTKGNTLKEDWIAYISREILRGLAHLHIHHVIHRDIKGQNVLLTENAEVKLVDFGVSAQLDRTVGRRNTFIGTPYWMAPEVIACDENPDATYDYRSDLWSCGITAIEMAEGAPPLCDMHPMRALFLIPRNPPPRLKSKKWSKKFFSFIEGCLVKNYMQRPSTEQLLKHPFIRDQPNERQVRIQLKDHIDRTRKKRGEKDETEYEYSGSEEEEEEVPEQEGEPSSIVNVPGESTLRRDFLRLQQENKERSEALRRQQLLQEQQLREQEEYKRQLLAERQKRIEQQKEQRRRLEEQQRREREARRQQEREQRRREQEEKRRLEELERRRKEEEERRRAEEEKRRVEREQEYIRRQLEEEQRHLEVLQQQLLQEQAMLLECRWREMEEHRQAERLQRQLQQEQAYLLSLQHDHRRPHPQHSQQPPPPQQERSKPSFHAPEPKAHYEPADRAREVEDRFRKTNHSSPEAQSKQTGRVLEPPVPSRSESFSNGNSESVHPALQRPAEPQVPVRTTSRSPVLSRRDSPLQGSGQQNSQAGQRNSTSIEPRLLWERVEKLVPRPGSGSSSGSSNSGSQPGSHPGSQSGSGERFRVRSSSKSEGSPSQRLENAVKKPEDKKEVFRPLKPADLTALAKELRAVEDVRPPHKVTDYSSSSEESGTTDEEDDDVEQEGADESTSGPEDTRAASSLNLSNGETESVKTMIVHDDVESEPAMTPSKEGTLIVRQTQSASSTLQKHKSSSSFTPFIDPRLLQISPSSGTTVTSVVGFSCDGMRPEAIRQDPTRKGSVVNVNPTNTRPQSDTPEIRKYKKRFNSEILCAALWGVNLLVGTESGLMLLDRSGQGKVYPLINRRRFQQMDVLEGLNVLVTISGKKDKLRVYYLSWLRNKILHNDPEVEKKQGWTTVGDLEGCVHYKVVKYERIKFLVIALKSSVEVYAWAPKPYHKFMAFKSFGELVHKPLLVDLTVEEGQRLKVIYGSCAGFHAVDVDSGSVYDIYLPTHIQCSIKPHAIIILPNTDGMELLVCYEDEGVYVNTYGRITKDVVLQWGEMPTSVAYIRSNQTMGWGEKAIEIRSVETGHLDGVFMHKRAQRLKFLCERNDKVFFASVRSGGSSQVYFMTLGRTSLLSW

## Cc1c(-c2cc3cc(NC(=O)O[C@H]4COC[C@@H]4C)ncc3c(N)c2F)cnc2c1NCCO2
[1]
  IC50: 0.72 nM
[2]
  bioavailability: 46%
[3]
  clearance: 39 mL/min/kg
[4]
  IC50: 3.3 nM
[5]
  fraction unbound: 0.142
[6]
  Vdss: 1.9 L/kg
[7]
  IC50: > 10000 nM
[8]
  IC50: 28000 nM
[9]
  Ratio: > 40
[10]
  Ki: < 0.019 nM
[11]
  fraction unbound: 0.094
[12]
  IC50: 3.1 nM
[13]
  half-life: 1.3 h
[14]
  inhibition: 50%
[15]
  Ratio: > 120
[16]
  half-life: 1.9 h
[17]
  Ratio: > 170
[18]
  EC50: 6.4 nM
[19]
  bioavailability: 30%
[20]
  fraction unbound: 0.116
[21]
  IC50: 2.3 nM
[22]
  Ratio: > 69
[23]
  Activity: Non-Toxic
[24]
  IC50: 3.6 nM
[25]
  IC50: 1.3 nM
[26]
  IC50: 46 nM
[27]
  inhibition: 50%
[28]
  Ratio: > 200
[29]
  inhibition: 50%
[30]
  fraction unbound: 0.053
[31]
  Activity: Non-Toxic
[32]; C57BL/6, mouse
  bioavailability: 37%
[33]
  IC50: 44 nM
[34]
  Papp A→B at 10 µM: 15 ×10⁻⁶ cm/s
[35]
  Vd: 2.2 L/kg
[36]
  IC50: > 10000 nM
[37]
  Ratio: > 180
[38]
  half-life: 2.5 h
[39]
  bioavailability: 53%
[40]
  half-life: 1.7 h
[41]
  Vdss: 2.2 L/kg
[42]
  Vdss: 1.8 L/kg
[43]
  IC50: 31 nM

## Cc1c(N)cncc1-c1cc2cc(Nc3cc4n(n3)CC(=O)N(C)CC4)ncc2c(N)c1F
[3]
  clearance: 64 mL/min/kg
[13]
  half-life: 0.57 h
[18]
  EC50: 11 nM
[32]; mouse, po, 25 mg/kg, 24 h, BLD = below limit of detection
  F: Bld
[33]
  IC50: 110 nM
[34]
  Papp A→B at 10 µM: 0.4 ×10⁻⁶ cm/s
[35]
  Vd: 2.2 L/kg
[40]
  half-life: 0.26 h
[42]
  Vdss: 1.3 L/kg

## Cc1ccncc1-c1cc2cc(Nc3cc4n(n3)CC(=O)N(C)CC4)ncc2c(N)c1F
[10]
  Ki: 0.16 nM

— ChEMBL document CHEMBL6127064, “Discovery of GNE-6893, a Potent, Selective, Orally Bioavailable Small Molecule Inhibitor of HPK1” (ACS Med Chem Lett, 2024)
